Reference: patent publication US6369299B1 (Regents of the University of Minnesota, priority 1999, dated 2002)

What was measured:
[1] = test system: Medicago sativa cv. Regen SY; assay: atrazine tolerance: rooting and growth of sterile cuttings on sugar-free, hormone-free B5h medium; assay type: in vivo; conditions: untransformed control (SY) plant cuttings, Magenta boxes
Source text: Under these conditions plant growth depends on photosynthesis for production of energy and carbon.

[2] = test system: quinone-binding (QB) protein; conditions: altered QB protein of atrazine resistant weeds; cited from earlier work
plants = conditions: cited from earlier work

SMILES | atrazine concentration at which cuttings did not root or grow [1] [nM] | reduced affinity of altered QB protein for atrazine [2] [fold] | herbicidal activity (plants)
CCNc1nc(Cl)nc(NC(C)C)n1 [atrazine, 2-chloro-4-ethylamino-6-isopropylamino-1,3,5-s-triazine] | ≥ 500 | 1000 | –
CCNc1nc(NC(C)C)[nH]c(=O)n1 [hydroxyatrazine] | – | – | no herbicidal activity
